Legend:
Assay in all cases: relative viability (nuclei count vs DMSO), 5 days (fraction); higher = more cells survive
Masitinib + Tozasertib = compound: Cc1ccc(NC(=O)c2ccc(CN3CCN(C)CC3)cc2)cc1Nc1nc(-c2cccnc2)cs1 [Masitinib] + Cc1cc(Nc2cc(N3CCN(C)CC3)nc(Sc3ccc(NC(=O)C4CC4)cc3)n2)n[nH]1 [Tozasertib] (partner 0.1 µM)
Method in brief: (§1)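 Lung cancer cell lines were pin-tool dosed in 1536-well plates on the day after seeding, with either a lone drug or a fixed anchor-drug dose plus five library-drug doses (not always all listed) in √10 steps. Nuclei were counted on 4× images after 5 days. Relative viability is the ratio of treated-well to vehicle-well nuclei counts, with each value a median of duplicate plates.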

Masitinib + Navitoclax = compound: Cc1ccc(NC(=O)c2ccc(CN3CCN(C)CC3)cc2)cc1Nc1nc(-c2cccnc2)cs1 [Masitinib] + CC1(C)CCC(c2ccc(Cl)cc2)=C(CN2CCN(c3ccc(C(=O)NS(=O)(=O)c4ccc(N[C@H](CCN5CCOCC5)CSc5ccccc5)c(S(=O)(=O)C(F)(F)F)c4)cc3)CC2)C1 [Navitoclax] (partner 0.5 µM)
Method in brief: as §1

[1] = compound: CC1=CC(=CC=C1)NC2=NC(=CS2)C3=CC=NC=C3 + CC(C)C[C@H](NC(=O)[C@H](Cc1ccccc1)NC(=O)c1cnccn1)B(O)O [Bortezomib] (partner 0.002 µM)
Method in brief: as §1

[2] = compound: CC1=CC(=CC=C1)NC2=NC(=CS2)C3=CC=NC=C3 + CC(=O)Nc1cccc(-n2c(=O)n(C3CC3)c(=O)c3c(Nc4ccc(I)cc4F)n(C)c(=O)c(C)c32)c1 [Trametinib] (partner 0.02 µM)
Method in brief: as §1

**Q.** For UMC-11, which relative viability (Masitinib + Tozasertib; first compound 0.01 µM) is on record?
**A.** Its relative viability is 0.204.

**Q.** What about the relative viability (Masitinib + Tozasertib; first compound 0.03162 µM) of the same cell line?
**A.** The relative viability was 0.207.

**Q.** And the relative viability (Masitinib + Tozasertib; first compound 0.1 µM)?
**A.** Its relative viability is 0.198.

**Q.** What about the relative viability (Masitinib + Tozasertib; first compound 0.3162 µM) of the same cell line?
**A.** Its relative viability is 0.211.

**Q.** What about the relative viability (Masitinib + Tozasertib; first compound 1 µM) of the same cell line?
**A.** Its relative viability is 0.195.

**Q.** And the relative viability (Masitinib + Navitoclax; first compound 0.01 µM)?
**A.** The relative viability was 0.286.

**Q.** What about the relative viability (Masitinib + Navitoclax; first compound 0.03162 µM) of the same cell line?
**A.** Its relative viability is 0.321.

**Q.** And the relative viability (Masitinib + Navitoclax; first compound 0.1 µM)?
**A.** The relative viability was 0.353.

**Q.** And the relative viability (Masitinib + Navitoclax; first compound 0.3162 µM)?
**A.** The relative viability was 0.338.

**Q.** And the relative viability (Masitinib + Navitoclax; first compound 1 µM)?
**A.** The relative viability was 0.353.

**Q.** What about the relative viability ([1]; first compound 0.08 µM) of the same cell line?
**A.** Its relative viability is 0.761.

**Q.** What about the relative viability ([1]; first compound 0.253 µM) of the same cell line?
**A.** Its relative viability is 0.839.

**Q.** And the relative viability ([1]; first compound 0.8 µM)?
**A.** Its relative viability is 0.635.

**Q.** What about the relative viability ([1]; first compound 2.53 µM) of the same cell line?
**A.** Its relative viability is 0.67.

**Q.** What about the relative viability ([1]; first compound 8 µM) of the same cell line?
**A.** The relative viability was 0.686.

**Q.** What about the relative viability ([2]; first compound 0.08 µM) of the same cell line?
**A.** Its relative viability is 0.555.

**Q.** What about the relative viability ([2]; first compound 0.253 µM) of the same cell line?
**A.** The relative viability was 0.737.

**Q.** And the relative viability ([2]; first compound 0.8 µM)?
**A.** The relative viability was 0.731.

**Q.** And the relative viability ([2]; first compound 2.53 µM)?
**A.** Its relative viability is 0.768.

**Q.** What about the relative viability ([2]; first compound 8 µM) of the same cell line?
**A.** The relative viability was 0.764.

Reference: the supplement of paper PMC10307832
